This note sets out measurements from PMC11876601 (Molecular Systems Biology, 2025).

The test concerns MiaPaCa-2. The experiment in a line: cells. Details: ATPlite luminescence viability of PDAC cell lines, 11-dose single-agent curves, 4-parameter fit. The following applies: Homo sapiens, MIA PaCa-2, 72 h, read-out: EC50 [nM]. An outline of the steps: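 Drug-combination screening used cells plated at 1000 to 5000 per well one day before treatment. Final DMSO was 0.2%. Each plate held untreated negative-control wells and 5 µM staurosporine positive-control wells.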

Take `COc1cc(N2CCC(N3CCN(C)CC3)CC2)ccc1Nc1ncc(Cl)c(Nc2ccccc2P(C)(C)=O)n1` [Brigatinib]: the EC50 (as a rule, the concentration that produces a half-maximal response) was 177 nM.

Consider `C[C@]12O[C@H](C[C@]1(O)CO)n1c3ccccc3c3c4c(c5c6ccccc6n2c5c31)CNC4=O` [Lestaurtinib], for which the EC50 came to 275 nM.

Take `CCN1CCN(Cc2ccc(Nc3ncc(F)c(-c4cc(F)c5nc(C)n(C(C)C)c5c4)n3)nc2)CC1` [Abemaciclib]: the EC50 turned out to be 82.2 nM.
